Values quoted from earlier work as cited in patent publication US11744789B2, “Method for dyeing keratinous material, comprising the use of an organosilicon compound, a colored effect pigment and a sealing reagent III” (Henkel AG & Co. KGaA, priority 2019, dated 2023).

Conditions: for solubility in water: 25° C.

O=S(=O)(O)c1ccc(N=Nc2c(O)ccc3ccccc23)cc1 [Acid Orange 7, 4-[(2-hydroxy-1-naphthyl)azo]benzene sulphonate]
solubility in water: more than 7 g/L

O=[N+]([O-])c1cc([N+](=O)[O-])c2ccc(S(=O)(=O)O)cc2c1O [Acid Yellow 9, 8-hydroxy-5,7-dinitro-2-naphthalenesulfonic acid]
solubility in water: above 40 g/L

O=C(O)C1=NN(c2ccc(S(=O)(=O)O)cc2)C(=O)C1N=Nc1ccc(S(=O)(=O)O)cc1 (stereo not drawn) [Acid Yellow 23, 4,5-dihydro-5-oxo-1-(4-sulfophenyl)-4-((4-sulfophenyl)azo)-1H-pyrazole-3-carboxylic acid]
solubility in water (in words) (at 25° C.): highly soluble in water
